# Assay results published in patent US8436039B2, “Inhibitors of the ATB(0,+) transporter and uses thereof” (Georgia Health Sciences University Research Institute, Inc., priority 2008, dated 2013).
# Experiments:
# [1] = test system: MCF7, T-47D and ZR-75.1 cells; test: Colony formation assay, malignant ATB^0,+-positive mammary epithelial cell lines; type: cell-based; details: Homo sapiens, 288 h, 2.5 mM, 12 days, regular culture medium
# Experimental: (§1) The colony formation assay was performed as described previously (Thangaraju et al., 2006, Cancer Res. 66, 11560-11564). Mammary epithelial cells were seeded on to 6-well plates (10000 cells per well) in DMEM. After 24 hours, cells were exposed to varying concentrations of α-methyl-DL-tryptophan or 1-methyl-DL-tryptophan for 2 weeks, changing medium every 2 days. Cells were washed with PBS and fixed in 100% (v/v) methanol for 30 min followed by staining with KaryoMAX Giemsa stain for one hour. The wells were washed with water and dried overnight at room temperature. Finally, the dye in the wells was dissolved with 1% SDS in 0.2 M NaOH for one hour, and the attenuance of the released dye was measured at 630 nm.
# (§2) The present studies have identified α-methyl-DL-tryptophan as a blocker of ATB^0,+ and also have shown that the compound is able to block the transport of amino acids via ATB^0,+ under conditions that stimulate those in vivo in terms of amino acid concentrations. […] For this, we treated the human mammary epithelial cell lines with 2.5 mM α-methyl-DL-tryptophan in the presence of regular culture medium for 12 days in clonogenic assay and quantified the colony formation for each cell line in the presence and absence of α-methyl-DL-tryptophan (FIG. 8). […]
# MCF7 cells [2] = test: Colony formation assay, dose-response in MCF7 cells; type: cell-based; details: Homo sapiens, same assay conditions, read-out: IC50 for inhibition of colony formation
# Experimental: as §1, §2
# [3] = test system: MDA-MB231, MDA-MB361 and MDA-MB453 cell lines; test: Colony formation assay, malignant ATB^0,+-negative mammary epithelial cell lines; type: cell-based, human; details: 2.5 mM, 12 days, no or very low ATB^0,+
# Experimental: as §1, §2
# MCF7 cells [4] = test: Cell cycle analysis (FACS, propidium iodide) in MCF7 cells; type: cell-based, human; details: 2.5 mM; 24 hours
# Experimental: MCF10A (an ATB^0,+-negative non-malignant cell line), MCF7 (an ATB^0,+-positive malignant cell line) and MDA-MB453 (an ATB^0,+-negative malignant cell line) cells were cultured in 6-well plates in a regular culture medium in the presence or absence of α-methyl-DL-tryptophan (2.5 mM) for 24, 48 and 72 hours. Cells were fixed in 50% (v/v) ethanol, treated with 0.1% sodium citrate, 1 mg/ml RNase A and 50 μg/ml propidium iodide, and subjected to FACS (Becton Dickinson FACSCalibur™) analysis. The amount of DNA in these cells, detected as chromosome content by propidium iodide binding, was used to identify cells in various stages of cell cycle: G1/G0, 2N; S, 2-4 N; G2/M, 4N (where N is the normal chromosome content).
# Since treatment with α-methyl-DL-tryptophan suppressed colony formation in malignant cell lines in an ATB^0,+-dependent manner, we investigated the influence of this treatment on cell cycle to determine which stage of the cycle is affected. We used three different cell lines in this experiment: MCF10A (non-malignant and ATB^0,+-negative), MCF7 (malignant and ATB^0,+-positive) and MDA-MB453 (malignant and ATB^0,+-negative) (FIG. 9). […] In contrast, the treatment affected the cell cycle progression in the ATB^0,+-positive MCF7 cell line. The cells were arrested at G1/G0 stage to a significant extent when treated with α-methyl-DL-tryptophan. […]
# [5] = mice; 2 mg/ml in drinking water; cited from earlier work
Structure (SMILES),inhibition at 2500 µM [1],IC50 (MCF7 cells [2]),effect on colony formation [3],percentage of MCF7 cells in G1/G0-phase (MCF7 cells [4]),percentage of MCF7 cells in S-phase (MCF7 cells [4]),plasma levels [5]
CC(N)(Cc1c[nH]c2ccccc12)C(=O)O (racemic) [α-methyl-DL-tryptophan],60 to 75%,160 ± 15 µM,little or no effect,82±1 percentage,3±1 percentage,–
Cn1cc(C[C@@H](N)C(=O)O)c2ccccc21 [1-methyl-D-tryptophan],–,–,–,–,–,35 to 40 µM
